{"source": "patent US20170190671A1", "about": "“BIS(ARYL)CATECHOL DERIVATIVES AS HERBICIDES” (E I DU PONT DE NEMOURS AND COMPANY, priority 2014, published 2017)", "type_in_all_cases": "in vivo", "key": {"[1]": {"test_system": "lambsquarters (Chenopodium album)", "test": "Test C preemergence", "details": "Chenopodium album, pre-emergence, 336 h, scale 0 to 100, read-out: Plant response rating, Lambsquarters", "how_it_was_run": "(§1)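 Greenhouse test, preemergence on seeded soil or postemergence on 1- to 4-leaf plants. Response is a visual 0-100 rating versus controls, taken 13-15 days after treatment.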"}, "[2]": {"test_system": "barnyardgrass (Echinochloa crus-galli)", "test": "Test C preemergence", "details": "Echinochloa crus-galli, pre-emergence, read-out: Plant response rating, Barnyardgrass", "how_it_was_run": "as §1"}, "[3]": {"test_system": "ducksalad (Heteranthera limosa)", "test": "Test B flooded paddy", "details": "Heteranthera limosa, 336 h; 250 g ai/ha, Flood, 13 to 15 days, scale 0 (no effect) to 100 (complete control); read-out: Plant response rating, Ducksalad", "how_it_was_run": "(§2)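 Test compounds are applied straight into paddy water held 3 cm above the soil surface, with that flood maintained for the whole test. After 13 to 15 days in the greenhouse, each species is scored visually relative to controls.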"}, "[4]": {"test_system": "barnyardgrass (Echinochloa crus-galli)", "test": "Test B flooded paddy", "details": "Echinochloa crus-galli, 336 h; 250 g ai/ha, Flood, 13 to 15 days, scale 0 (no effect) to 100 (complete control); read-out: Plant response rating, Barnyardgrass", "how_it_was_run": "as §2"}, "rice (Oryza sativa)": {"test_system": "rice (Oryza sativa)", "test": "Test B flooded paddy", "details": "Oryza sativa, 336 h; 250 g ai/ha, Flood, 13 to 15 days, scale 0 (no effect) to 100 (complete control); read-out: Plant response rating, Rice", "how_it_was_run": "as §2"}, "[5]": {"test_system": "sedge, umbrella (small-flower umbrella sedge, Cyperus difformis)", "test": "Test B flooded paddy", "details": "Cyperus difformis, 336 h; 250 g ai/ha, Flood, 13 to 15 days, scale 0 (no effect) to 100 (complete control); read-out: Plant response rating, Sedge, Umbrella", "how_it_was_run": "as §2"}, "[6]": {"test_system": "galium (catchweed bedstraw, Galium aparine)", "test": "Test A postemergence", "details": "Galium, post-emergence, 240 h, 0 to 100 scale, read-out: Plant response rating, Galium", "how_it_was_run": "(§3)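 Visual 0–100 rating (100 = complete control) taken about 10 d post-treatment relative to untreated checks. Preemergence: directed soil spray on sown loam/sand pots. Postemergence: seedlings 2–10 cm, 1–2 leaf. Non-phytotoxic solvent formulation with surfactant.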"}, "[7]": {"test_system": "wheat (Triticum aestivum)", "test": "Test A postemergence", "details": "Triticum aestivum, post-emergence, 240 h, 0 to 100 scale, read-out: Plant response rating, Wheat", "how_it_was_run": "as §3"}, "[8]": {"test_system": "ragweed (common ragweed, Ambrosia elatior)", "test": "Test A postemergence", "details": "Ambrosia artemisiifolia, post-emergence, 240 h, 0 to 100 scale, read-out: Plant response rating, Ragweed", "how_it_was_run": "as §3"}, "[9]": {"test_system": "Italian ryegrass (Lolium multiflorum)", "test": "Test A postemergence", "details": "Lolium multiflorum, post-emergence, 240 h, 0 to 100 scale, read-out: Plant response rating, Ryegrass, Italian", "how_it_was_run": "as §3"}, "kochia (Kochia scoparia) [10]": {"test_system": "kochia (Kochia scoparia)", "test": "Test A postemergence", "details": "Bassia scoparia, post-emergence, 240 h, 0 to 100 scale, read-out: Plant response rating, Kochia", "how_it_was_run": "as §3"}, "corn (Zea mays)": {"test_system": "corn (Zea mays)", "test": "Test A postemergence", "details": "Zea mays, post-emergence, 240 h, 0 to 100 scale", "how_it_was_run": "as §3"}, "[11]": {"test_system": "barnyardgrass (Echinochloa crus-galli)", "test": "Test A postemergence", "details": "Echinochloa crus-galli, post-emergence, 240 h, 0 to 100 scale, read-out: Plant response rating, Barnyardgrass", "how_it_was_run": "as §3"}, "[12]": {"test_system": "giant foxtail (Setaria faberii)", "test": "Test A postemergence", "details": "Setaria faberi, post-emergence, 240 h, 0 to 100 scale, read-out: Plant response rating, Foxtail, Giant", "how_it_was_run": "as §3"}, "[13]": {"test_system": "blackgrass (Alopecurus myosuroides)", "test": "Test A postemergence", "details": "Alopecurus myosuroides, post-emergence, 240 h, 0 to 100 scale, read-out: Plant response rating, Blackgrass", "how_it_was_run": "as §3"}, "[14]": {"test_system": "pigweed (Amaranthus retroflexus)", "test": "Test A postemergence", "details": "Amaranthus retroflexus, post-emergence, 240 h, 0 to 100 scale, read-out: Plant response rating, Pigweed", "how_it_was_run": "as §3"}, "[15]": {"test_system": "ragweed (common ragweed, Ambrosia elatior)", "test": "Test A preemergence", "details": "Ambrosia artemisiifolia, pre-emergence, 240 h, 0 to 100 scale (0 no effect, 100 complete control), read-out: Ragweed plant response rating", "how_it_was_run": "as §3"}, "[16]": {"test_system": "Italian ryegrass (Lolium multiflorum)", "test": "Test A preemergence", "details": "Lolium multiflorum, pre-emergence, 240 h, 0 to 100 scale (0 no effect, 100 complete control), read-out: Ryegrass, Italian plant response rating", "how_it_was_run": "as §3"}, "kochia (Kochia scoparia) [17]": {"test_system": "kochia (Kochia scoparia)", "test": "Test A preemergence", "details": "Bassia scoparia, pre-emergence, 240 h, 0 to 100 scale (0 no effect, 100 complete control), read-out: Kochia plant response rating", "how_it_was_run": "as §3"}, "[18]": {"test_system": "barnyardgrass (Echinochloa crus-galli)", "test": "Test A preemergence", "details": "Echinochloa crus-galli, pre-emergence, 240 h, 0 to 100 scale (0 no effect, 100 complete control), read-out: Barnyardgrass plant response rating", "how_it_was_run": "as §3"}, "[19]": {"test_system": "giant foxtail (Setaria faberii)", "test": "Test A preemergence", "details": "Setaria faberi, pre-emergence, 240 h, 0 to 100 scale (0 no effect, 100 complete control), read-out: Foxtail, Giant plant response rating", "how_it_was_run": "as §3"}, "[20]": {"test_system": "pigweed (Amaranthus retroflexus)", "test": "Test A preemergence", "details": "Amaranthus retroflexus, pre-emergence, 240 h, 0 to 100 scale (0 no effect, 100 complete control), read-out: Pigweed plant response rating", "how_it_was_run": "as §3"}}}
{"smiles": "N#Cc1cccc(Oc2ncc(C(F)(F)F)cn2)c1Oc1ncc(Cl)cn1", "note": "[Compound 39, 2-[(5-chloro-2-pyrimidinyl)oxy]-3-[[5-(trifluoromethyl)-2-pyrimidinyl]oxy]-benzonitrile]", "values": [{"measurement": "pest or weed control at 31 g/ha", "setting": "[1]; 31 g ai/ha, preemergence", "result": 90, "unit": "%"}, {"measurement": "pest or weed control at 62 g/ha", "setting": "[1]; 62 g ai/ha, preemergence", "result": 98, "unit": "%"}, {"measurement": "pest or weed control at 125 g/ha", "setting": "[1]; 125 g ai/ha, preemergence", "result": 95, "unit": "%"}, {"measurement": "pest or weed control at 16 g/ha", "setting": "[1]; Preemergence, 16 g ai/ha", "result": 60, "unit": "%"}, {"measurement": "pest or weed control at 31 g/ha", "setting": "[2]; 31 g ai/ha, preemergence, scale 0 to 100", "result": 95, "unit": "%"}, {"measurement": "pest or weed control at 62 g/ha", "setting": "[2]; 62 g ai/ha, preemergence, scale 0 to 100", "result": 95, "unit": "%"}, {"measurement": "pest or weed control at 125 g/ha", "setting": "[2]; 125 g ai/ha, preemergence, scale 0 to 100", "result": 100, "unit": "%"}, {"measurement": "pest or weed control at 16 g/ha", "setting": "[2]; Preemergence, 16 g ai/ha, scale 0 to 100 (0 no effect, 100 complete control)", "result": 65, "unit": "%"}, {"measurement": "pest or weed control at 250 g/ha", "setting": "[3]", "result": 100, "unit": "%"}, {"measurement": "pest or weed control at 250 g/ha", "setting": "[4]", "result": 50, "unit": "%"}, {"measurement": "plant injury at 250 g/ha", "setting": "rice (Oryza sativa)", "result": 50, "unit": "%"}, {"measurement": "pest or weed control at 250 g/ha", "setting": "[5]", "result": 100, "unit": "%"}, {"measurement": "pest or weed control at 31 g/ha", "setting": "[6]; 31 g ai/ha", "result": 100, "unit": "%"}, {"measurement": "pest or weed control at 125 g/ha", "setting": "[6]; 125 g ai/ha", "result": 100, "unit": "%"}, {"measurement": "plant injury at 31 g/ha", "setting": "[7]; 31 g ai/ha", "result": 10, "unit": "%"}, {"measurement": "plant injury at 125 g/ha", "setting": "[7]; 125 g ai/ha", "result": 90, "unit": "%"}, {"measurement": "pest or weed control at 31 g/ha", "setting": "[8]; 31 g ai/ha", "result": 40, "unit": "%"}, {"measurement": "pest or weed control at 125 g/ha", "setting": "[8]; 125 g ai/ha", "result": 60, "unit": "%"}, {"measurement": "pest or weed control at 31 g/ha", "setting": "[9]; 31 g ai/ha", "result": 40, "unit": "%"}, {"measurement": "pest or weed control at 125 g/ha", "setting": "[9]; 125 g ai/ha", "result": 90, "unit": "%"}, {"measurement": "pest or weed control at 31 g/ha", "setting": "kochia (Kochia scoparia) [10]; 31 g ai/ha", "result": 100, "unit": "%"}, {"measurement": "pest or weed control at 125 g/ha", "setting": "kochia (Kochia scoparia) [10]; 125 g ai/ha", "result": 100, "unit": "%"}, {"measurement": "Corn plant response rating (crop injury, 0 = no effect, 100 = complete kill) at 31 g/ha", "setting": "corn (Zea mays); 31 g ai/ha", "result": 60, "unit": "%"}, {"measurement": "Corn plant response rating (crop injury, 0 = no effect, 100 = complete kill) at 125 g/ha", "setting": "corn (Zea mays); 125 g ai/ha", "result": 100, "unit": "%"}, {"measurement": "pest or weed control at 31 g/ha", "setting": "[11]; 31 g ai/ha", "result": 90, "unit": "%"}, {"measurement": "pest or weed control at 125 g/ha", "setting": "[11]; 125 g ai/ha", "result": 90, "unit": "%"}, {"measurement": "pest or weed control at 31 g/ha", "setting": "[12]; 31 g ai/ha", "result": 100, "unit": "%"}, {"measurement": "pest or weed control at 125 g/ha", "setting": "[12]; 125 g ai/ha", "result": 100, "unit": "%"}, {"measurement": "pest or weed control at 31 g/ha", "setting": "[13]; 31 g ai/ha", "result": 80, "unit": "%"}, {"measurement": "pest or weed control at 125 g/ha", "setting": "[13]; 125 g ai/ha", "result": 100, "unit": "%"}, {"measurement": "pest or weed control at 31 g/ha", "setting": "[14]; 31 g ai/ha", "result": 100, "unit": "%"}, {"measurement": "pest or weed control at 125 g/ha", "setting": "[14]; 125 g ai/ha", "result": 100, "unit": "%"}, {"measurement": "pest or weed control at 31 g/ha", "setting": "[15]; 31 g ai/ha", "result": 0, "unit": "%"}, {"measurement": "pest or weed control at 125 g/ha", "setting": "[15]; 125 g ai/ha", "result": 40, "unit": "%"}, {"measurement": "pest or weed control at 31 g/ha", "setting": "[16]; 31 g ai/ha", "result": 10, "unit": "%"}, {"measurement": "pest or weed control at 125 g/ha", "setting": "[16]; 125 g ai/ha", "result": 90, "unit": "%"}, {"measurement": "pest or weed control at 31 g/ha", "setting": "kochia (Kochia scoparia) [17]; 31 g ai/ha", "result": 90, "unit": "%"}, {"measurement": "pest or weed control at 125 g/ha", "setting": "kochia (Kochia scoparia) [17]; 125 g ai/ha", "result": 100, "unit": "%"}, {"measurement": "pest or weed control at 31 g/ha", "setting": "[18]; 31 g ai/ha", "result": 80, "unit": "%"}, {"measurement": "pest or weed control at 125 g/ha", "setting": "[18]; 125 g ai/ha", "result": 100, "unit": "%"}, {"measurement": "pest or weed control at 31 g/ha", "setting": "[19]; 31 g ai/ha", "result": 100, "unit": "%"}, {"measurement": "pest or weed control at 125 g/ha", "setting": "[19]; 125 g ai/ha", "result": 100, "unit": "%"}, {"measurement": "pest or weed control at 31 g/ha", "setting": "[20]; 31 g ai/ha", "result": 100, "unit": "%"}, {"measurement": "pest or weed control at 125 g/ha", "setting": "[20]; 125 g ai/ha", "result": 100, "unit": "%"}]}
